Test results taken from patent US8436047B2, “Preventive or ameliorating agent for liver disease involving hepatopathy” (Suntory Holdings Limited, priority 2004, dated 2013).

Tested on: hepatopathy induced by galactosamine (GalN/LPS)
Assay: Evaluation of 5,8,11-eicosatrienoic acid ethyl ester in an animal model of hepatopathy: serum GOT after GalN/LPS
Format: in vivo
Conditions: male ddY mice, 10 mg/kg orally for one week, then GalN 800 mg/kg / LPS 25 μg/kg i.p., blood six hours after; control group 1024±94 IU/L
Protocol: Four-week-old male ddY mice were orally given 10 mg/kg of 5,8,11-eicosatrienoic acid ethyl ester (mead acid) purified from the lipid SUNTGM17 prepared in Reference Example 1 for one week, and then they were intraperitoneally given physiological saline in which D-galactosamine and lipopolysaccharide were dissolved to 800 mg/kg and 25 μg/kg and mixed (GalN/LPS). Six hours after the GalN/LPS administration, blood was drawn, serum was separated, and GPT and GOT activities in the serum were determined, which confirmed that the GOT activity was 1024±94 IU/L in the control diet group, whereas it was 413±37 IU/L in the mead acid diet group, indicating a significant suppression of hepatopathy.

For `CCCCCCCCC=CCC=CCC=CCCCC(=O)OCC` [5,8,11-eicosatrienoic acid ethyl ester], the “GOT activity in the serum” value was 413±37 IU/L.
